Test results taken from a compilation of properties of binary mixtures (doi:10.1021/acs.jpcb.0c03296).

Test: xn = mol fraction of the nth substance listed
Conditions: 100 kPa

C[N+](C)(C)CCO.O=S(=O)([N-]S(=O)(=O)C(F)(F)F)C(F)(F)F + OCCO
Conditions | electrical conductivity, x1 = 0.14 [S/m] | electrical conductivity, x1 = 0.2 [S/m] | electrical conductivity, x1 = 0.333 [S/m] | viscosity, x1 = 0.14 [mPa·s] | viscosity, x1 = 0.2 [mPa·s] | viscosity, x1 = 0.333 [mPa·s]
298.1 K | 0.313 | 0.402 | 0.36 | 22.27 | 28.99 | 30.56
303 K | – | 0.494 | 0.442 | – | 23.44 | 24.82
308.1 K | 0.456 | 0.6 | 0.532 | 14.46 | 18.97 | 20.46
313 K | 0.54 | 0.715 | 0.635 | 12.12 | 15.74 | 17.15
318.1 K | 0.631 | 0.839 | 0.745 | 10.36 | 13.28 | 14.48
323 K | – | 0.975 | 0.866 | – | 11.32 | 12.28
328.1 K | 0.838 | 1.12 | 1 | 7.73 | 9.77 | 10.7
